From patent US12410171B2, “Tropomyosin receptor kinase (TRK) degradation compounds and methods of use” (Cullgen (Shanghai), Inc., priority 2020, dated 2025)
Where two headings read alike, the source gives them in different places.

Key:
KM12 cells = experiment: KM12 cell viability (CellTiter-Glo); format: cell-based; details: Homo sapiens
Method in brief: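 KM12 cells seeded at 5000 per well in RPMI 1640 + 10% FBS and exposed 3 days to serial dilutions (11-point 3-fold, 8-point 3-fold from 1000 nM, or 12-point 2-fold). Viability by CellTiter-Glo; IC50 from least-squares nonlinear regression.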

TPM3-TRKA fusion protein = target: T1, TPM3-TRKA fusion protein (Homo sapiens, UniProt P04629); experiment: TPM3-TRKA fusion protein levels in KM12 cells (Western blot); format: cell-based; details: read-out: Degradation (at 10 nM)
T1 construct: The resulted chimeric proteins always retain the kinase domain of TRK proteins; TPM3 (fusion partner, N-terminal part of tropomyosin alpha-3, P06753); endogenous in cells; host or cells: KM12 colon cancer cells; the other entry of the earlier key: TPM3 (P06753, Tropomyosin alpha-3 chain)
T1 sequence (P04629 with tags, fused parts or gaps): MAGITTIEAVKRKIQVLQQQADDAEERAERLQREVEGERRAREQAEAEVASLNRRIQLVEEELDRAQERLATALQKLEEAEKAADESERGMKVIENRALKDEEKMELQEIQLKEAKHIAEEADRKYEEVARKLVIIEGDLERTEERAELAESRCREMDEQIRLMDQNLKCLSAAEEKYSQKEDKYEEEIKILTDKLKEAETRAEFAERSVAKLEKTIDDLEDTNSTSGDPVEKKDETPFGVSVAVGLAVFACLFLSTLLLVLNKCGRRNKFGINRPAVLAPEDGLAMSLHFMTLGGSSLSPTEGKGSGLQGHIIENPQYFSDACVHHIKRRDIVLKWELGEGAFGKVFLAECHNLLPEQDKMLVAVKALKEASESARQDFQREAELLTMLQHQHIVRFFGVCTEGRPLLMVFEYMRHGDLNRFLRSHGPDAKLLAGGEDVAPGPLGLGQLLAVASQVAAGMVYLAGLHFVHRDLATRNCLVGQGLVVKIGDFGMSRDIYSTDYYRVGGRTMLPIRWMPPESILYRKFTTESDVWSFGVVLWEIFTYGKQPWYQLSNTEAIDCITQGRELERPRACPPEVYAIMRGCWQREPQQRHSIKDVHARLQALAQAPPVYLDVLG
Method in brief: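 KM12 colon cancer cells were treated with DMSO or compounds at 0.1–100 nM, 0.4–30 nM or other stated concentrations for 4, 8–16 or 16 h. RIPA lysates were BCA-normalized and resolved by SDS-PAGE. TPM3-TRKA was detected by chemiluminescent Western blot, with bands quantified by densitometry.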

[1] = 72 h, KM12 cell viability, CellTiter-Glo, three days treatment, read-out: IC50
[2] = 16 h, TPM3-TRKA degradation in KM12 cells at 10 nM compound, category of percentage degradation

Row | SMILES | percent degradation of TPM3-TRKA protein at 0.01 µM (TPM3-TRKA fusion protein; [2]) | IC50 (KM12 cells; KM12, 72 h) | percent degradation of TPM3-TRKA protein at 0.01 µM (TPM3-TRKA fusion protein; KM12, 16 h) | IC50 (KM12 cells; [1])
1 | Cn1c(=O)n(C2CCC(=O)NC2=O)c2ccc(NCCN3CCN(c4ccc(C(=O)Nc5n[nH]c6ccc(Cc7cc(F)cc(F)c7)cc56)c(NC5CCOCC5)c4)CC3)cc21 (stereo not shown) [TR-324, N-(5-(3,5-difluorobenzyl)-1H-indazol-3-yl)-4-(4-(2-((1-(2,6-dioxopiperidin-3-yl)-3-methyl-2-oxo-2,3-dihydro-1H-benzo[d]imidazol-5-yl)amino)ethyl)piperazin-1-yl)-2-((tetrahydro-2H-pyran-4-yl)amino)benzamide] | – | 1.3 nM | > 80% | –
2 | Cn1c(=O)n(C2CCC(=O)NC2=O)c2cccc(NCCN3CCN(c4ccc(C(=O)Nc5n[nH]c6ccc(Cc7cc(F)cc(F)c7)cc56)c(NC5CCOCC5)c4)CC3)c21 (stereo not shown) [TR-325, N-(5-(3,5-difluorobenzyl)-1H-indazol-3-yl)-4˜ (4-(2-((1-(2,6-dioxopiperidin-3-yl)-3-methyl-2-oxo-2,3-dihydro-1H-benzo[d]imidazol-4-yl)amino)ethyl)piperazin-1-yl)-2-((tetrahydro-2H-pyran-4-yl)amino)benzamide] | – | 13 nM | > 80% | –
3 | O=C1CCC(n2nnc3cccc(N4CC(CN5CCN(c6ccc(C(=O)Nc7n[nH]c8ccc(Cc9cc(F)cc(F)c9)cc78)c(NC7CCOCC7)c6)CC5)C4)c3c2=O)C(=O)N1 (stereo not shown) [TR-326, N-(5-(3,5-Difluorobenzyl)-1H-indazol-3-yl)-4-(4-((1˜ (3-(2,6-dioxopiperidin-3-yl)-4-oxo-3,4-dihydrobenzo[d][1,2,3]triazin-5-yl)azetidin-3-yl)methyl)piperazin-1-yl)-2-((tetrahydro-2H-pyran-4-yl)amino)benzamide] | 50 to 80% | – | – | 14 nM
4 | O=C1CCC(n2nnc3cccc(N4CC(CCN5CCN(c6ccc(C(=O)Nc7n[nH]c8ccc(Cc9cc(F)cc(F)c9)cc78)c(NC7CCOCC7)c6)CC5)C4)c3c2=O)C(=O)N1 (stereo not shown) [TR-327, N-(5-(3,5-Difluorobenzyl)-1H-indazol-3-yl)-4-(4-(2-(1-(3-(2,6-dioxopiperidin-3-yl)-4-oxo-3,4-dihydrobenzo[d][1,2,3]triazin-5-yl)azetidin-3-yl)ethyl)piperazin-1-yl)-2-((tetrahydro-2/-pyran-4-yl)amino)benzamide] | 50 to 80% | – | – | 13.3 nM
5 | O=C1CCC(N2C(=O)c3ccc(C4CN(CC5CCN(c6ccc(C(=O)Nc7n[nH]c8ccc(Cc9cc(F)cc(F)c9)cc78)c(NC7CCOCC7)c6)CC5)C4)cc3C2=O)C(=O)N1 (stereo not shown) [TR-328, N-(5-(3,5-Difluorobenzyl)-1H-indazol-3-yl)-4-(4-((3˜ (2-(2,6-dioxopiperidin-3-yl)-1,3-dioxoisoindolin-5-yl)azetidin-1-yl)methyl)piperidin-1-yl)-2-((tetrahydro-2/7-pyran-4-yl)amino)benzamide] | > 80% | – | – | 35.9 nM
6 | O=C1CCC(N2Cc3cc(C4CN(CC5CCN(c6ccc(C(=O)Nc7n[nH]c8ccc(Cc9cc(F)cc(F)c9)cc78)c(NC7CCOCC7)c6)CC5)C4)ccc3C2=O)C(=O)N1 (stereo not shown) [TR-330, N-(5-(3,5-Difluorobenzyl)-1H-indazol-3-yl)-4-(4-((3-(2-(2,6-dioxopiperidin-3-yl)-1-oxoisoindolin-5-yl)azetidin-1-yl)methyl)piperidin-1-yl)-2-((tetrahydro-2H-pyran-4-yl)amino)benzamide] | > 80% | – | – | 28.5 nM
7 | O=C1CCC(N2Cc3cc(N4CC(N5CCN(c6cccc(-c7cnc8ccc(N9CCC[C@@H]9c9cccc(F)c9)nn78)n6)CC5)C4)ccc3C2=O)C(=O)N1 (stereo partly drawn) [TR-331, 3-(5-(3-(4-(6-(6-((R)-2-(3-fluorophenyl)pyrrolidin-1-yl)imidazo[1,2-b]pyridazin-3-yl)pyridin-2-yl)piperazin-1-yl)azetidin-1-yl)-1-oxoisoindolin-2-yl)piperidine-2,6-dione] | > 80% | – | – | 1.6 nM
8 | O=C1CCC(N2Cc3cc(N4CC(N5CCN(c6ccc(C(=O)Nc7n[nH]c8ccc(Cc9cc(F)cc(F)c9)cc78)c(NC7CCOCC7)c6)CC5)C4)ccc3C2=O)C(=O)N1 (stereo not shown) [TR-332, N-(5-(3,5-difluorobenzyl)-1H-indazol-3-yl)-4-(4-(1-(2-(2,6-dioxopiperidin-3-yl)-1-oxoisoindolin-5-yl)azetidin-3-yl)piperazin-1-yl)-2-((tetrahydro-2H-pyran-4-yl)amino)benzamide] | > 80% | – | – | 1.7 nM
9 | Cc1nc2cccc(N3CC(CN4CCN(c5ccc(C(=O)Nc6n[nH]c7ccc(Cc8cc(F)cc(F)c8)cc67)c(NC6CCOCC6)c5)CC4)C3)c2c(=O)n1C1CCC(=O)NC1=O (stereo not shown) [TR-333, N-(5-(3,5˜Difluorobenzyl)-1H-indazol-3-yl)-4-(4-((1-(3-(2,6-dioxopiperidin-3-yl)-2-methyl-4-oxo-3,4-dihydroquinazolin-5-yl)azetidin-3-yl)methyl)piperazin-1-yl)-2-((tetrahydro-2H-pyran-4-yl)amino)benzamide] | 50 to 80% | – | – | 10.5 nM
10 | Cc1nc2cccc(N3CC(CCN4CCN(c5ccc(C(=O)Nc6n[nH]c7ccc(Cc8cc(F)cc(F)c8)cc67)c(NC6CCOCC6)c5)CC4)C3)c2c(=O)n1C1CCC(=O)NC1=O (stereo not shown) [TR-334, N-(5-(3,5-Difluorobenzyl)-1H-indazol-3-yl)-4-(4-(2-(1-(3-(2,6-dioxopiperidin-3-yl)-2-methyl-4-oxo-3,4-dihydroquinazolin-5-yl)azetidin-3-yl)ethyl)piperazin-1-yl)-2-((tetrahydro-2/-pyran-4-yl)amino)benzamide] | 50 to 80% | – | – | 24.6 nM
11 | O=C1CCC(N2Cc3ccc(N4CC(N5CCN(c6cccc(-c7cnc8ccc(N9CCC[C@@H]9c9cccc(F)c9)nn78)n6)CC5)C4)cc3C2=O)C(=O)N1 (stereo partly drawn) [TR-335, 3-(6-(3-(4-(6-(6-((R)-2-(3-fluorophenyl)pyrrolidin-1-yl)imidazo[1,2-b]pyridazin-3-yl)pyridin-2-yl)piperazin-1-yl)azetidin-1-yl)-1-oxoisoindolin-2-yl)piperidine-2,6-dione] | 50 to 80% | – | – | 8.3 nM
12 | O=C1CCC(N2Cc3cc(C4CN(C5CCN(c6ccc(C(=O)Nc7n[nH]c8ccc(Cc9cc(F)cc(F)c9)cc78)c(NC7CCOCC7)c6)CC5)C4)ccc3C2=O)C(=O)N1 (stereo not shown) [TR-338, N-(5-(3,5-difluorobenzyl)-1H-indazol-3-yl)-4-(4-(3-(2-(2,6-dioxopiperidin-3-yl)-1-oxoisoindolin-5-yl)azetidin-1-yl)piperidin-1-yl)-2-((tetrahydro-2H-pyran-4-yl)amino)benzamide] | – | – | > 80% | 1.3 nM

More lines, main results first:

Row | percent degradation of TPM3-TRKA protein at 0.01 µM (TPM3-TRKA fusion protein; [2]) | SMILES | IC50 (KM12 cells; KM12, 72 h) | percent degradation of TPM3-TRKA protein at 0.01 µM (TPM3-TRKA fusion protein; KM12, 16 h) | IC50 (KM12 cells; [1])
13 | > 80% | O=C1CCC(N2Cc3ccc(N4CC(N5CCN(c6ccc(C(=O)Nc7n[nH]c8ccc(Cc9cc(F)cc(F)c9)cc78)c(NC7CCOCC7)c6)CC5)C4)cc3C2=O)C(=O)N1 (stereo not drawn) [TR-336, N—(S-(3,5-difluorobenzyl)-1H-indazol-3-yl)-4-(4-(1-(2-(2,6-dioxopiperidin-3-yl)-3-oxoisoindolin-5-yl)azetidin-3-yl)piperazin-1-yl)-2-((tetrahydro-2H-pyran-4-yl)amino)benzamide] | – | – | 3.2 nM
14 | > 80% | O=C1CCC(N2C(=O)c3ccc(N4CC(NC5CCN(c6ccc(C(=O)Nc7n[nH]c8ccc(Cc9cc(F)cc(F)c9)cc78)c(NC7CCOCC7)c6)CC5)C4)cc3C2=O)C(=O)N1 (stereo not shown) [TR-337, N-(5-(3,5-difluorobenzyl)-1H-indazol-3-yl)-4-(4-((1-(2-(2,6-dioxopiperidin-3-yl)-1,3-dioxoisoindolin-5-yl)azetidin-3-yl)amino)piperidin-1-yl)-2-((tetrahydro-2H-pyran-4-yl)amino)benzamide] | – | – | 5.5 nM
15 | > 80% | O=C1CCC(N2C(=O)c3ccc(C4CN(C5CCN(c6ccc(C(=O)Nc7n[nH]c8ccc(Cc9cc(F)cc(F)c9)cc78)c(NC7CCOCC7)c6)CC5)C4)cc3C2=O)C(=O)N1 (stereo not shown) [TR-339, N-(5-(3,5-difluorobenzyl)-1H-indazol-3-yl)-4-(4-(3-(2-(2,6-dioxopiperidin-3-yl)-1,3-dioxoisoindolin-5-yl)azetidin-1-yl)piperidin-1-yl)-2-((tetrahydro-2H-pyran-4-yl)amino)benzamide] | – | – | 8.1 nM
16 | > 80% | O=C1CCC(N2C(=O)c3ccc(N4CC5(C4)CN(C4CCN(c6ccc(C(=O)Nc7n[nH]c8ccc(Cc9cc(F)cc(F)c9)cc78)c(NC7CCOCC7)c6)CC4)C5)cc3C2=O)C(=O)N1 (stereo not shown) [TR-340, N-(5-(3,5-difluorobenzyl)-1H-indazol-3-yl)-4-(4-(6-(2-(2,6-dioxopiperidin-3-yl)-1,3-dioxoisoindolin-5-yl)-2,6-diazaspiro[3.3]heptan-2-yl)piperidin-1-yl)-2-((tetrahydro-2H-pyran-4-yl)amino)benzamide] | – | – | 7.5 nM
17 | > 80% | O=C1CC[C@H](N2C(=O)c3ccc(N4CC(CN5CCN(c6ccc(C(=O)Nc7n[nH]c8ccc(Cc9cc(F)cc(F)c9)cc78)c(NC7CCOCC7)c6)CC5)C4)cc3C2=O)C(=O)N1 [TR-341, (S)—N-(5-(3,5-difluorobenzyl)-1H-indazol-3-yl)-4-(4-((1-(2-(2,6-dioxopiperidin-3-yl)-1,3-dioxoisoindolin-5-yl)azetidin-3-yl)methyl)piperazin-1-yl)-2-((tetrahydro-2H-pyran-4-yl)amino)benzamide] | – | – | 3 nM
